Experimental data as given in patent US6620419B1, “Cosmetic or dermopharmaceutical use of peptides for healing, hydrating and improving skin appearance during natural or induced ageing (heliodermia, pollution)” (Sederma, priority 1998, dated 2003).
Non-standard residues stand in square brackets, D forms with d. No end group written: not given here. *: point of attachment. Palmitoyl = CCCCCCCCCCCCCCCC(=O)*; Sar = CNCC(=O)O

Experiments:
Format in all cases: cell-based
explants of human skin [1] = test: Increase in synthesis of collagen in vitro: 3H-proline incorporation in human skin explants; details: for increase of incorporation of 3H-proline (synthesis of collagen) relative to blank tests: 72 hours, human skin explants
Description: The method chosen is a modification of that described by Augustin C. et al. (Skin Pharmacol. (1997); 10:63-70) in that we have used explants of human skin instead of human pulmonary fibroblasts, so as to render our results directly usable in cosmetology. These explants, from abdominal or mammary plastic surgery, are incubated for 72 hours in the presence ^3H-proline, with peptide N-Palmitoyl-[…], to three final concentrations in the culture medium (2.10^-4%, 4.10^-4% and 8.10^-4%; namely, 2, 4 and 8 ppm). The explants are then washed, the […] of each explant are separated, homogenized and lysed. The measurement of the incorporation of ^3H-proline is thus carried out in each lysat. Tests were done in triplicate. In parallel, negative controls are carried out under the same conditions but in the absence of the peptide. Positive controls, themselves, are carried out by replacing the peptide tested by vitamin C.

explants of human skin [2] = test: Increase of the synthesis of glycosaminoglycans in vitro: 3H-glucosamine incorporation in human skin explants; details: for increase of incorporation of 3H-glucosamine (synthesis of GAGs) relative to blank experiments: 72 hours, human skin explants
Description: The method chosen is a modification of that described by Augustin C. et al. (Skin Pharmacol. (1997); 10:63-70) in that we have used explants of human skin instead of human pulmonary fibroblasts, so as to render our results directly usable in cosmetology.
These explants, from abdominal or mammary plastic surgery, are incubated for 72 hours in the presence ^3H-proline, with peptide N-Palmitoyl-Sarcosine-Thr-Thr-Lys-Ser, to three final concentrations in the culture medium (2.10^−4%, 4.10^−4% and 8.10^−4%; namely, 2, 4 and 8 ppm). The explants are then washed, the derma and epiderma of each explant are separated, homogenized and lysed. The measurement of the incorporation of ^3H-proline is thus carried out in each lysat. Tests were done in triplicate.
In parallel, negative controls are carried out under the same conditions but in the absence of the peptide. Positive controls, themselves, are carried out by replacing the peptide tested by vitamin C.
The same protocol as in Example No. 3 is used, except that, on the one hand, the incubation is carried out in the presence of ^3H-glucosamine instead of ^3H-proline and vitamin A acid is used as reference product in place of vitamin C.

human fibroblasts = test: Cutaneous toning activity in vitro: stimulation of protein synthesis, colorimetry (Biuret reaction); details: 24 hours, per 1000 cells
Description: For 24 hours, human fibroblasts from the same cellular culture are placed in the presence of the standard culture medium, supplemented or not for controls, with given concentrations of peptide (2, 4 and 8 ppm).
The stimulation of the synthesis of proteins is evaluated by colorimetry (so-called Biuret reaction).
To standardize the results, the quantity of proteins measured is expressed for 1000 cells present in the test.

## O=C1O[C@H]([C@@H](O)CO)C(O)=C1O [ascorbic acid, reference compound]
Explants of human skin [1]; reference product at 0.5mM, same conditions
  increase of collagen synthesis: 61.4 (±5) %

## KTTKSA
Explants of human skin [2]; 2 ppm peptide
  increase of incorporation of 3H-glucosamine (synthesis of GAGs) relative to blank experiments: 24.5 (±3) %
Explants of human skin [2]; 4 ppm peptide
  increase of incorporation of 3H-glucosamine (synthesis of GAGs) relative to blank experiments: 48.8 (±3) %
Explants of human skin [2]; 8 ppm peptide
  increase of incorporation of 3H-glucosamine (synthesis of GAGs) relative to blank experiments: 67.9 (±5) %

## CC1=C(/C=C/C(C)=C/C=C/C(C)=C/C(=O)O)C(C)(C)CCC1 [vitamin A acid, reference compound]
Explants of human skin [2]; reference product at 100 nM, same conditions
  increase of synthesis of GAGs: 45.3 (±2) %

## N-Palmitoyl-Sarcosine-Thr-Thr-Lys-Ser (Palmitoyl-[Sar]TTKS)
Explants of human skin [1]; 2 ppm peptide
  increase of incorporation of 3H-proline (synthesis of collagen) relative to blank tests: 30.2 (±2) %
Explants of human skin [1]; 4 ppm peptide
  increase of incorporation of 3H-proline (synthesis of collagen) relative to blank tests: 54.7 (±5) %
Explants of human skin [1]; 8 ppm peptide
  increase of incorporation of 3H-proline (synthesis of collagen) relative to blank tests: 90.9 (±5) %

## N-Palmitoyl-Lys-Thr-Thr-Lys-Ser (Palmitoyl-KTTKS) [N-palmytoyl-Lys-Thr-Thr-Lys-Ser]
Human fibroblasts; 2 ppm peptide
  increase in the concentration of proteins relative to control experiments: 14.7 (±1.0) %
Human fibroblasts; 4 ppm peptide
  increase in the concentration of proteins relative to control experiments: 21.0(±2.4) %
Human fibroblasts; 8 ppm peptide
  increase in the concentration of proteins relative to control experiments: 44.8(±1.0) %
